{"source": "paper PMC10767396", "about": "(Advanced Science, 2023)", "key": {"[1]": {"set-up": "method as in PMID 36213537", "details": "C57BL/6 mice, i.p. 1 mg kg^-1, blood and brain at 30 min, 1 and 4 h; cited from earlier work"}, "HDAC6 enzyme": {"biological_target": "HDAC6 enzyme", "details": "read-out: IC50 for HDAC6; enzyme inhibition assay; cited from earlier work"}, "LPS induced BV2 cells": {"system": "LPS induced BV2 cells", "test": "Multiplex MSD-cytokine assay in LPS-induced BV2 cells", "assay_type": "cell-based, murine", "details": "LPS 10 ng/mL + PB118 500/1000 nM, 24 h, media", "method": "(§1) Briefly, for microglia‐related amyloid (Aβ) phagocytosis study, BV2 cells were seeded in a 6‐well confocal dish (400k cells mL^−1) and cultured overnight for ≈90% confluency. […] Then, media were collected to perform the LDH assay for cell cytotoxicity assessment. Cells were washed carefully with PBS (2x) and lysed by adding 200 µL of MPER++ (10 mL MPER with 1% protease cocktail inhibitor and 1% EDTA) in each well. Cell lysates were collected in 1.5 mL Eppendorf tube and centrifuged at 12 000 rpm at 4 °C for 15 min and supernatants were collected for further studies. Total protein was quantified using the BCA protein assay kit (Pierce). Briefly, BV2 cells were cultured following previously published methods and grew in DMEM media containing 10% heat‐inactivated fetal bovine serum, 2 mM L‐Glutamine, and 1% penicillin/streptomycin (Life Technologies). […] Subsequently, media were collected and applied to LDH to assess cell viability; cells were extensively washed with PBS and were lysed in MPER lysis buffer (MPER++) supplemented with EDTA‐free protease inhibitors (Roche), Halt phosphatase inhibitor cocktail (Thermo Fisher Scientific). Lysates were centrifuged as before (12 000 rpm at 4 °C for 15 min) and supernatants were collected for further analysis.\n(§2) MSD immunoassays are quite robust and based on combining multiarray technology and electrochemiluminescence to identify numerous proteins in a single sample."}, "[2]": {"system": "3D human neural stem cell model of AD (ReNcell VM)", "test": "LDH assay in 3D human neural culture", "assay_type": "cell-based", "details": "PB118 1 or 5 µM, 3 weeks", "method": "Human precursor ReN cells were used to prepare 3D AD environment following previous work.^[ [30] ^] Briefly, for 3D layers of cells, BD Matrigel stock solution (BD Biosciences) was diluted with ReN cell differentiation medium (in 1:15 dilution) (chilled) followed by vertexing with the cell pellets for 20 s. A final cell concentration of ≈2 × 10^6 cells mL^−1 was used and this cell/ Matrigel mixtures were immediately transferred ([…] in each) into an Optilux clear bottom 96‐well plates (BD Biosciences). A thin layer ([…]) of 3D gels was formed at the bottom of the plates after incubating the plates at 37 °C for 1 h and the media were changed. For differentiation before drug treatment, 3D‐plated cells were cultured for 6 weeks, and the media were changed every 3–4 days. […] The cells were harvested for extraction using a lysis buffer mixture (Lysis 6 buffer with protease inhibitor; 1:100), followed by shaking for 1 h at cold room and centrifugation at 2 k rpm for 30 min. Supernatants were collected and further analyzed by MSD immunoassay kit and western blot analysis. The previously reported CytoTox‐ONE assay was performed to analyze cell viability by measuring the release of lactate dehydrogenase (LDH) following the manufacturer's guidelines (Promega; Madison, WI). Briefly, 50 µL of cell culture media was utilized and a 1:1 dilution of substrate was added. […]"}, "BV2 cells [3]": {"system": "BV2 cells", "test": "Immunocytochemistry (ICC) in BV2 cells", "assay_type": "cell-based, murine", "method": "ICC was performed following previously published articles.^[ [36] ^] Briefly, BV2 cells were seeded and grown overnight in a LabTek 8‐well chamber wells having ≈100 k cells well^−1. […] Discarded the media after 3 h, washed each well carefully with 150–300 µL of PBS (2x), and fixed with 4% PFA for 20 min at r.t. After that, washed each well again with 150–300 µL of PBS (2x) at r.t and incubated with blocking buffer (5% Donkey serum with 0.1% Triton‐X‐100 in PBS). Aspirate the blocking buffer and add 150 µL of primary antibody in each well and keep it at 4 °C for overnight shaking. Washed with washing buffer (PBS containing 0.1% Triton‐X‐100, 0.05% Tween‐20) twice and incubated with specific secondary antibody in each of the wells with gently shaking for 2 h at r.t. Discarded secondary solution and washed with washing buffer twice and incubated 10 min with 2 nM of Hoechst solution for another 10 min at r.t, washed with PBS (two times) and finally mounted with Prolong Gold antifade reagent, dried at r.t, and covered with a cover slip. Microscopic images were captured with these slides to understand the activity of HDAC6 toward tubulin/microtubule."}, "46 CNS‐related targets": {"system": "46 CNS‐related targets", "set-up": "method as in PMID 36213537", "details": "cited from earlier work"}, "BV2 cells [4]": {"system": "BV2 cells", "test": "Microglial Aβ phagocytosis, MSD Aβ peptide panel 1 (4G8)", "assay_type": "cell-based, murine", "details": "Aβ42 2 µg/mL + PB118 500 and 1000 nM, 6 h, vs control", "method": "as §1, with “analysis. […]” for “analysis.”"}, "[5]": {"system": "3D human neural stem cell model of AD (ReNcell VM)", "test": "MSD phospho (Thr231)/total tau and Aβ (6E10) assay in 3D-AD culture", "assay_type": "cell-based", "details": "3 weeks", "method": "Human precursor ReN cells were used to prepare 3D AD environment following previous work.^[ [30] ^] Briefly, for 3D layers of cells, BD Matrigel stock solution (BD Biosciences) was diluted with ReN cell differentiation medium (in 1:15 dilution) (chilled) followed by vertexing with the cell pellets for 20 s. A final cell concentration of ≈2 × 10^6 cells mL^−1 was used and this cell/ Matrigel mixtures were immediately transferred ([…] in each) into an Optilux clear bottom 96‐well plates (BD Biosciences). A thin layer ([…]) of 3D gels was formed at the bottom of the plates after incubating the plates at 37 °C for 1 h and the media were changed. For differentiation before drug treatment, 3D‐plated cells were cultured for 6 weeks, and the media were changed every 3–4 days. […] The cells were harvested for extraction using a lysis buffer mixture (Lysis 6 buffer with protease inhibitor; 1:100), followed by shaking for 1 h at cold room and centrifugation at 2 k rpm for 30 min. Supernatants were collected and further analyzed by MSD immunoassay kit and western blot analysis.\nas §2"}, "[6]": {"test": "Stability in human serum (HPLC)", "assay_type": "in vitro ADME", "details": "37 °C"}, "[7]": {"system": "human microglia HMC3 cells", "test": "LDH assay and stereomicroscopy in HMC3 cells", "assay_type": "cell-based", "details": "PB118 500 and 1000 nM, 6 h", "method": "The previously reported CytoTox‐ONE assay was performed to analyze cell viability by measuring the release of lactate dehydrogenase (LDH) following the manufacturer's guidelines (Promega; Madison, WI). Briefly, 50 µL of cell culture media was utilized and a 1:1 dilution of substrate was added. […] Under the influence of the assay's substrate, resazurin was converted to resorufin, its fluorescent form, owing to LDH. The fluorometric results were used to compare the experiment group to the control group to assess the cytotoxicity of treated compounds."}, "[8]": {"set-up": "method as in PMID 36213537", "details": "cited from earlier work"}, "BV2 cells [9]": {"system": "BV2 cells", "test": "Western blot of PB118-treated BV2 cell lysates", "assay_type": "cell-based, murine", "details": "PB118 500 and 1000 nM, 6 h", "method": "The previously described WB method was implemented to perform and analyze western blot membrane.^[ [34] ^] […] Proteins were separated by the electrophoresis using the 4–12% Bis‐Tris SDS‐PAGE Gel System (Invitrogen, Thermo Fisher Scientific), followed by membrane transfer to PVDF membranes (Invitrogen, Thermo Fischer scientific). Next, the membranes were blocked for 30 min with the Superblock (Thermo Scientific) and then incubated overnight with primary antibodies following the dilutions mentioned below. The membranes were then washed with TBST (four times) and incubated with appropriate secondary antibodies (1:10 000 dilution) at room temperature for 2 h. Then, membranes were incubated with Supersignal West Femto (Life Technologies), and the images for immunoreactivity were developed and visualized by the LICOR Odyssey Fc. Quantifications of proteins of interest were performed by Image J software."}, "HDAC1": {"system": "HDAC1", "details": "read-out: IC50 for HDAC1; enzyme inhibition assay; cited from earlier work"}, "BV2 cells [10]": {"system": "BV2 cells", "test": "LDH cytotoxicity assay in BV2 cells", "assay_type": "cell-based, murine", "method": "as §1, with “analysis. […]” for “analysis.”"}, "BV2 cells [11]": {"system": "BV2 cells", "test": "Stereomicroscopic images of BV2 cell morphology", "assay_type": "cell-based, murine", "from_the_text": "Stereomicroscopic images were captured before and after the treatment of different concentrations of PB118 on BV2 cells to elucidate the cytotoxicity based on the cellular morphology of BV2 cells by using Invitrogen EVOS XL Core stereo microscope."}, "[12]": {"set-up": "method as in PMID 36213537", "details": "human liver microsomes; cited from earlier work"}, "BV2 cells [13]": {"system": "BV2 cells", "test": "Cold depolymerization assay", "assay_type": "cell-based, murine", "details": "PB118 500 nM 24 h, on ice 10 and 20 min in comparison to 0 min", "method": "To perform this assay, BV2 cells were seeded and cultured in an 8‐well Labtek chamber slide for overnight (100 k well^−1). […] Then cells were incubated on ice to induce microtubule depolymerization and were fixed using 4% PFA at different time points (0, 10, and 20 min). After that, cells were washed with PBS three times and blocked with blocking buffer (5% Donkey serum with 0.1% Triton‐X‐100 in PBS) and immunostaining was performed with these fixed cells against α‐tubulin (green) and acetylated α‐tubulin (red) antibodies. Appropriate secondary antibodies were used for visualization of these cells and images were captured in a Nikon C2 confocal microscopy."}, "[14]": {"details": "higher concentration of PB118 (1 or 5 µM tested)"}}}
{"smiles": "O=C(NO)c1ccc(CN2CCCCc3ccccc32)c(F)c1", "note": "[PB118]", "values": [{"measurement": "BBB crossing (brain/plasma study)", "setting": "[1]", "result": "BBB crossing ability"}, {"measurement": "IC50", "setting": "HDAC6 enzyme", "result": 0.0056, "unit": "µM"}, {"measurement": "IL-12p-70 level", "setting": "LPS induced BV2 cells", "result": "significant reductions"}, {"measurement": "KC/GRO (CXCL1) level", "setting": "LPS induced BV2 cells", "result": "significant reductions"}, {"measurement": "interleukin-6 (IL-6) level", "setting": "LPS induced BV2 cells", "result": "significant reductions"}, {"measurement": "cytotoxicity (LDH assay)", "setting": "[2]", "result": "no cytotoxicity"}, {"measurement": "HDAC6 expression (ICC)", "setting": "BV2 cells [3]; LPS 10 ng/mL + PB118 500 nM", "result": "lack of significant change"}, {"measurement": "α-tubulin network (ICC)", "setting": "BV2 cells [3]; LPS 10 ng/mL + PB118 500 nM", "result": "lack of significant change"}, {"measurement": "acetylated tubulin levels (ICC) with or without LPS", "setting": "BV2 cells [3]; PB118 500 nM with or without LPS 10 ng/mL", "result": "no change"}, {"measurement": "acetyl α-tubulin expression (ICC)", "setting": "BV2 cells [3]; PB118 500 nM, 3 h, vs vehicle", "result": "higher compared to vehicle"}, {"measurement": "off-target binding profile", "setting": "46 CNS‐related targets", "result": "good off‐target binding profile"}, {"measurement": "Aβ42 levels in cell lysates (phagocytosis)", "setting": "BV2 cells [4]", "result": "significant increase"}, {"measurement": "Aβ42 generation", "setting": "[5]; PB118 1 or 5 µM", "result": "significantly reduced"}, {"measurement": "p-tau (Thr231) level", "setting": "[5]; [14]", "result": "significantly reduced"}, {"measurement": "total tau level", "setting": "[5]; [14]", "result": "significantly reduced"}, {"measurement": "decay constant in human serum", "setting": "[6]", "result": "6.3e-06", "unit": "s⁻¹"}, {"measurement": "mean lifetime in human serum", "setting": "[6]", "result": 43.6, "unit": "h"}, {"measurement": "compound remaining in human serum", "setting": "[6]; after 24 h, HPLC", "result": "≈ 57%"}, {"measurement": "half-life (t1/2) in human serum", "setting": "[6]; calculated by formula of Figure S2b", "result": 30.2, "unit": "h"}, {"measurement": "half-life at 5 mM", "setting": "[6]; human, calculated by formula of Figure S2b, read-out: half-life (t1/2) in human serum (converted)", "result": "~30.2", "unit": "h"}, {"measurement": "morphology and cytotoxicity (stereomicroscopy, LDH assay)", "setting": "[7]", "result": "no detrimental change in morphology or cytotoxicity"}, {"measurement": "binding with human plasma", "setting": "[8]", "result": 99.4, "unit": "%"}, {"measurement": "HDAC6 expression (WB, normalized to β-actin)", "setting": "BV2 cells [9]", "result": "non‐significant change"}, {"measurement": "Ac-α-tubulin protein level (WB, normalized to α-tubulin)", "setting": "BV2 cells [9]; vs control", "result": "significant increase"}, {"measurement": "IC50", "setting": "HDAC1", "result": 7.82, "unit": "µM"}, {"measurement": "cell viability (LDH assay)", "setting": "BV2 cells [10]; LPS 10 ng/mL +/- PB118 500 or 1000 nM, 24 h, treated vs control", "result": "No significant difference"}, {"measurement": "cytotoxicity (LDH assay)", "setting": "BV2 cells [10]; PB118 500 and 1000 nM with or without Aβ42 (2 µg/mL), 6 h", "result": "no significant cytotoxicity"}, {"measurement": "cell morphology (stereomicroscopic images)", "setting": "BV2 cells [11]; LPS +/- PB118, 24 h", "result": "no significant difference of cell morphology"}, {"measurement": "cell morphology (microscopic images before and after treatment)", "setting": "BV2 cells [11]; PB118 with or without Aβ42, 6 h", "result": "no significant change in cell morphology"}, {"measurement": "half-life in human microsomal liver", "setting": "[12]", "result": 1.13, "unit": "h"}, {"measurement": "acetylated α-tubulin protein expression in cold depolymerization condition", "setting": "BV2 cells [13]", "result": "significantly higher"}]}
